pEC50, pIC50: −log10 of the molar value. Read-outs that look alike come from different tables or passages of the source.

In experiment [1] the target is T1, chimpanzee EP4 receptor (Pan troglodytes, UniProt Q95KZ0). Put plainly: Competition binding of 3H-PGE2 on CHO-K1 cells transiently transfected with chimpanzee EP4.
Experimental: Competitive binding of various prostanoid ligands for EP1-EP4 with ^3H-PGE2 on CHO cells transiently transfected with chimpanzee EP4. Each indicated concentration of (▪) PGE2, (●) sulprostone, (▴) butaprost, or (♦) EP4SL was incubated with three wells of a 24-well dish of CHO cells transiently transfected with chimpanzee EP4 for 1 hr on ice in the presence of 3 nM 3H-PGE2. Following washing and solubilization of the cells, specific binding was determined by scintillation counting. Error bars represent one standard deviation.
The day prior to transfection, CHO-K1 cells were plated in 100 mm dishes (Corning, Corning, N.Y.) at 6×10^4 cells/cm^2 in DMEM/F12 (Life Technologies) supplemented with 10% fetal calf serum (FCS; Gemini Bio-Products, Calabasas, Calif.). The next day, each plate of cells was transfected with 15 g chimpanzee EP4-pCR3.1-Uni plasmid DNA using Lipofectamine 2000 reagent (Life Technologies) according to the manufacturer's protocol. Briefly, 451 of Lipofectamine 2000 reagent was diluted into 1.5 ml of D-MEM/F12 without serum and incubated at room temperature for 5 minutes. During this time, 15g chimpanzee EP4-pCR3.1-Uni plasmid DNA was diluted into 0.5 ml of D-MEM/F12 without serum. The diluted Lipofectamine 2000 reagent and the DNA were then mixed and incubated an additional 20 minutes at room temperature. 8 ml D-MEM/F12 without serum was then added to each reaction and carefully added to a plate of CHO cell previously rinsed with serum free D-M EM/F12. These cells were then incubated at 37° C. with 5% CO2 for 6 hr at which time 1 ml FCS was added per plate and the incubation continued at 37° C. with 5% CO2 overnight. The following day, the cells were split to either 24-well or 96-well dishes for use in ligand binding and/or secondary signaling analyses.
Whole cell binding reactions (0.2 ml per well) containing 3 nM ^3H-PGE2 plus unlabeled competitor (10^−5 to 10^−10 M) were performed on ice for 1 hr. Unbound radioligand was removed by extensive washing, the cells were solubilized with 1% SDS, and the bound ^3H-PGE2 quantitated by scintillation counting.
Experiment [2] deals with T1, chimpanzee EP4 receptor. Briefly: cAMP accumulation (SPA) in CHO cells transiently transfected with chimpanzee EP4. It counts as cell-based. As to conditions: 12 minutes treatment, IBMX present, SPA kit. On the procedure: Error bars represent one standard deviation.
Secondary signaling in CHO cells expressing chimpanzee EP4 was measured by cAMP accumulation. CHO cells transiently transfected with chimpanzee EP4 were treated for 12 minutes with various concentrations of PGE2 in the presence of 2 mM IBMX. Accumulation of intracellular cAMP was measured at the end of the treatment period by use of a commercially available scintillation proximity assay (SPA) kit (Amersham, Arlington Heights, Ill.).
(§1) Cells were then rinsed once with PBS and the appropriate concentrations of test compounds (diluted in assay buffer: 5 mM MgCl2; 30 mM Hepes pH 7.4; 0.3 mM 3-isobutyl-1-methylxanthine, (IBMX; Calbiochem, La Jolla, Calif.); 1 mg/ml dextrose) were added. The plate was incubated at 37° C. for 12 minutes, after which 10 μl lysis buffer was added to each well to terminate the reaction. SPA reagent (RPA559, Amersham, Piscataway, N.J.) was prepared according to the manufacturer's protocol and 120 μl was added to each well. Assay plates were then counted in a Wallac Trilux counter (Perkin Elmer, Boston, Mass.).
Background: Cyclic AMP is a second messenger, typically raised through Gs and lowered through Gi signalling.

The subject of another experiment is parental CHO-K1 cells. Briefly: cAMP levels in parental (untransfected) CHO-K1 cells. In kind it is cell-based, Chinese hamster. As to conditions: parental CHO-K1 cells (not transfected). On the procedure:
The protein-coding region of chimpanzee EP4 was contained in open reading frame of 1470 bp and encodes a protein of 490 amino acids with a predicted molecular weight of 53.4 kD.
as §1

T1 sequence (Q95KZ0 whole entry): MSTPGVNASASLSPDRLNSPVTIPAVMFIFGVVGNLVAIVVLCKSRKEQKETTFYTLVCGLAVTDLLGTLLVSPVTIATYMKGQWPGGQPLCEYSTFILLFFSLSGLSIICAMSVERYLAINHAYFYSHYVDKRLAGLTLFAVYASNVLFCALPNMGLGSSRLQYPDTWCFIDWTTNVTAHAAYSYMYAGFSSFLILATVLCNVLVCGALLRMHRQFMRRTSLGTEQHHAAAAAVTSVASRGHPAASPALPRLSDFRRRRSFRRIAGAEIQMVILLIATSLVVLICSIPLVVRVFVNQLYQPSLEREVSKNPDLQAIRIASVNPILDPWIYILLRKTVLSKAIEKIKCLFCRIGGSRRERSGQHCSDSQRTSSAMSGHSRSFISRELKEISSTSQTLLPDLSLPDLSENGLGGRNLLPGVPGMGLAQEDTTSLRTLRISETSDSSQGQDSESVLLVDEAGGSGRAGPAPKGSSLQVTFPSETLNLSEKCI

As a reminder, the pIC50 is −log10 of the IC50, conventionally taken in molar units. The pEC50 is the negative decadic logarithm of the EC50, by convention in mol/L. A high value points to a small EC50. For the compound `O=C(O)CCCCCCN1C(=O)CCC1CCC(O)Cc1ccccc1` (stereo not shown) [EP4SL, 7-[2-(3-hydroxy-4-phenyl-butyl)-5-oxo-pyrrolidin-1-yl]-heptanoic acid], on chimpanzee EP4 receptor [1], the pIC50 was 6.52. Besides, the pEC50 at chimpanzee EP4 receptor [2] is 6.25. For the same compound, in the experiment on parental CHO-K1 cells, the “increased levels of cAMP” value was “not in parental CHO-K1 cells”.

Take `CCCCC[C@H](O)/C=C/[C@H]1[C@H](O)CC(=O)[C@@H]1C/C=C\CCCC(=O)O` [PGE2, Prostaglandin E2]: the pIC50 on chimpanzee EP4 receptor [1] (read-out: IC50 for displacement of 3H-PGE2 binding, whole CHO-K1 cells transiently transfected with chimpanzee EP4, 3 nM 3H-PGE2, 1 hr on ice) is 8.60. The same compound had a pEC50 at chimpanzee EP4 receptor [2] of 8.05. Also, the “increased levels of cAMP” value with parental CHO-K1 cells is on record as “not in parental CHO-K1 cells”.

`CCCC1([C@H](O)C/C=C/[C@H]2[C@H](O)CC(=O)[C@@H]2CCCCCCC(=O)OC)CCC1` [butaprost]: on chimpanzee EP4 receptor [1] (CHO-K1 cells transiently transfected with chimpanzee EP4, competitor 10^-5 to 10^-10 M), the “binding to the chimpanzee EP4 receptor (competition with 3H-PGE2)” value is “did not bind”.

Source of the values: patent US20030059890A1, “DNA encoding the chimpanzee prostaglandin E2 receptor EP4 subtype” (Pfizer Inc., priority 2001, published 2003).
